Assay results published in article PMC9956360, “Production of a Fungal Punicalagin-Degrading Enzyme by Solid-State Fermentation: Studies of Purification and Characterization” (Foods, 2023).

Tested on: T1, EAH (EAH 1 and EAH 2), ellagitannin-acyl hydrolase identified as alpha-L-arabinofuranosidase
T1 construct: gene abfB; native secreted protein from solid-state fermentation, co-purified mixture; 499 residues each; domains ArabFuran-catal (20-334 / 20-333) and AbfB (352-493)
Assay: Lineweaver-Burk
Assay type: biochemical, Aspergillus niger
Conditions: mixture of two co-purified isoforms; temperature and pH of kinetics not stated
Source text: Lineweaver-Burk on EAH (EAH 1 and EAH 2), ellagitannin-acyl hydrolase identified as alpha-L-arabinofuranosidase

Km: 6.66 mM
SMILES: COC(=O)c1cc(O)c(O)c(O)c1 [methyl gallate]
